# According to US20260294905A1, “USE OF PLURALITY OF COMPOUNDS IN PREPARATION OF DRUG FOR TREATING MYELOPROLIFERATIVE NEOPLASMS” (THE SECOND XIANGYA HOSPITAL OF CENTRAL SOUTH UNIVERSITY, priority 2022, published 2026):
# Several values for one entry are separate records, joined by “and”; a condition that tells them apart may be missing. Identical values can stand only once. Entries after “also recorded” stand apart in the source; their conditions may differ.
# Legend:
# [1] = system: myeloproliferative neoplasms patients; settings: cited from earlier work; for side effects / safety in patients / effect on symptoms, clonal hematopoiesis, mutant gene load: clinical use
# [2] = system: HEL cells (human erythroleukemia cell line); test: CellTiter-Lumi luminescence proliferation of naive HEL cells, 48 h; format: cell-based; settings: for activity at 0.1 µM / activity at 0.3 µM / activity at 1 µM / activity at 3 µM / activity at 10 µM: vs DMSO control, read-out: average proliferation rate of HEL cells
# Procedure: (§1) HELs (Human erythroleukemia cell lines) and Ruxolitinib-resistant HEL cells were both cultured in a RPMI medium (Gibco) containing 20% heat-inactivated fetal bovine serum (Gibco) and 1% penicillin/streptomycin.
# (§2) Ruxolitinib and other compounds were all purchased from Selleck, dissolved in DMSO with a stock solution concentration of 10 mM, and cryopreserved at −80° C. The working solution was diluted to a specified multiple using a RPMI medium and then used for treating cells. Ruxolitinib was specifically ruxolitinib phosphate.
# (§3) To detect the antiproliferative effect of the inhibitor, the aforementioned cell lines were cultured at 3,000 cells/100 μL of the system per well, added with increasing concentrations of Ruxolitinib (concentration gradients of HEL cells: 0, 0.1, 1, 2.5, 5 μM; or 0, 0.1, 0.3, 1, 3, 10 μM), and added with DMSO to make up to the same amount. 4 parallel replicate groups were set up, and 3 blank wells (wells containing culture media without cells) were set up.
# (§4) A calculation formula of the cell proliferation rate was: cell proliferation rate=(Luminescence value of the group added with the drug-average Luminescence value of the blank wells)/(Luminescence value of the DMSO control group-average Luminescence value of the blank wells)×100%.
# In order to detect the effects of the compounds on the proliferation abilities of drug-resistant myeloproliferative neoplasm cells, the method was to treat the HEL naïve cell lines with increasing concentrations of Ruxolitinib and the compounds respectively, and to detect the proliferation of the cells by a CellTiter-Lumi™ luminescence method.
# [3] = system: HEL cells (human erythroleukemia cell line); test: Annexin V-PI staining and flow cytometry, apoptosis of HEL cells, 24 h; format: cell-based
# Procedure: • 1. the cell lines and inhibitors were the same as those in Example 1. • 2. detection of cell apoptosis
# (§5) To detect the apoptosis-promoting effect of the inhibitors, HEL naïve cell strains were treated with Ruxolitinib and the compounds for 24 hours respectively (with concentrations of: 0, 0.1, 0.5, 1 μM or 0, 0.1, 0.3, 1, 3, 10 μM), and added with DMSO to make up to the same amount. 3 parallel replicate groups were set up, and cell apoptosis was detected by Annexin V and PI staining followed by flow cytometry.
# (§6) A calculation formula of cell apoptosis rate was: cell apoptosis rate=the ratio of early apoptotic cells (Annexin V^+/PI^−)+the ratio of late apoptotic cells and necrotic cells (Annexin V^+/PI^+).
# [4] = system: HEL^RE cells (Ruxolitinib-resistant HEL); test: CellTiter-Lumi luminescence proliferation of Ruxolitinib-resistant HEL^RE cells, 48 h; format: cell-based, human; settings: for inhibition of proliferation of HEL^RE cells (in words): 0.1-10 μM; for activity at 0.1 µM / activity at 0.3 µM / activity at 1 µM / activity at 3 µM / activity at 10 µM: vs DMSO control, read-out: average proliferation rate of HEL^RE cells
# Description: as §1
# A Ruxolitinib-resistant HEL model, i.e., a HEL^RE model, was constructed by starting the addition of Ruxolitinib at a concentration lower than the IC50 of naïve cells and slowly incrementing the concentration to a high concentration, and preventing the cells from being killed. Our starting concentration was 0.1 μM. The drug was added upon occurrence of cell proliferation. The drug addition gradient was an increment at a multiple of 1.25, and the final concentration was 2.0 μM. Stable drug-resistant cells were obtained after 4-6 weeks.
# as §2, §3, §4
# A method for evaluating whether the model was successfully constructed was to compare the IC50s of resistant cells and naïve cells.
# In order to detect the effects of five compounds on the proliferation abilities of drug-resistant myeloproliferative neoplasm cells, the method was to treat HEL^RE with increasing concentrations of Ruxolitinib and the five compounds respectively, and to detect the proliferation of the cells by a CellTiter-Lumi™ luminescence method.
# [5] = system: HEL^RE cells (Ruxolitinib-resistant HEL); test: Annexin V-PI staining and flow cytometry, apoptosis of HEL^RE cells; format: cell-based, human; settings: for average apoptosis rate of HEL-RE cells: 24 h; for promotion of apoptosis of HEL^RE cells (in words): 0.1-10 μM
# Procedure: as §5, §6
# In order to detect the effects of compounds on the abilities of drug-resistant myeloproliferative neoplasm cells, the method was to treat HEL^RE with increasing concentrations of Ruxolitinib and the compounds, and to detect cell apoptosis by Annexin V and PI staining followed by flow cytometry.
# [6] = Homo sapiens, HEL^RE cells, 48 h
Compound,side effects / safety in patients [1],"activity at 0.1 µM ([2]; Homo sapiens, 48 h)","activity at 0.3 µM ([2]; Homo sapiens, 48 h)","activity at 1 µM ([2]; Homo sapiens, 48 h)","activity at 3 µM ([2]; Homo sapiens, 48 h)","activity at 10 µM ([2]; Homo sapiens, 48 h)",average apoptosis rate of HEL cells ([3]; 0.1 μM),average apoptosis rate of HEL cells ([3]; 0.3 μM),average apoptosis rate of HEL cells ([3]; 1 μM),average apoptosis rate of HEL cells ([3]; 3 μM),average apoptosis rate of HEL cells ([3]; 10 μM),"activity at 0.1 µM [4, 6]","activity at 0.3 µM [4, 6]","activity at 1 µM [4, 6]","activity at 3 µM [4, 6]","activity at 10 µM [4, 6]",average apoptosis rate of HEL-RE cells ([5]; 0.1 μM),average apoptosis rate of HEL-RE cells ([5]; 0.3 μM),average apoptosis rate of HEL-RE cells ([5]; 1 μM),average apoptosis rate of HEL-RE cells ([5]; 3 μM),further results
Cc1cnc(Nc2ccc(OCCN3CCCC3)cc2)nc1Nc1cccc(S(=O)(=O)NC(C)(C)C)c1 [Fedratinib],"may cause encephalopathy, including the risk of Wernicke's encephalopathy",,,,,,,,,,,,,,,,,,,,
Cn1c(Nc2ccc(C(F)(F)F)cc2)nc2cc(Oc3ccnc(-c4ncc(C(F)(F)F)[nH]4)c3)ccc21 [RAF265],,66.1 ± 4.71%,45.2 ± 2.96%,37 ± 2.18%,30 ± 0.13%,19.2 ± 0.99%,7.24±1.30% and 7.24%,7.19±0.400% and 7.19%,8.11±0.260% and 8.11%,10.7±1.22% and 10.7%,12.8±1.44% and 12.8%,92 ± 3.92%,67.2 ± 3.7%,35.8 ± 3.88%,21.8 ± 1.48%,3.45 ± 0.58%,6.48±0.480% and 6.48%,7.31±0.140% and 7.31%,8.24±0.730% and 8.24%,11.9±0.520% and 11.9%,"inhibition of proliferation of HEL cells (in words) ([2]; 0.1-10 μM): can successfully inhibit the proliferation of the HEL cells; also recorded: could inhibit the proliferation of the HEL cells, this effect was increased with the increase of the drug concentration; inhibitory effect on proliferation compared with Ruxolitinib ([2]; 0.1-10 μM): its inhibitory effect was better than that of Ruxolitinib; overall effectiveness among the compounds ([2]; proliferation and apoptosis taken together): more effective; effect on apoptosis compared with Ruxolitinib ([3]; 0.1-10 μM): its inhibitory effect was better than that of Ruxolitinib; promotion of apoptosis of HEL cells (in words) ([3]; 0.1-10 μM): could promote the apoptosis of the HEL cells, this effect was increased with the increase of the drug concentration; also recorded: can promote the apoptosis of the HEL cells; inhibition of proliferation of HEL^RE cells (in words) ([4]; HEL^RE cells): could inhibit the proliferation of the HEL^RE cells, and this effect increased with increase in the drug concentration; overall effectiveness among the compounds ([4]; HEL^RE cells, proliferation and apoptosis taken together): more effective; average apoptosis rate of HEL-RE cells ([5]; 10 μM): 19.1±3.75% and 19.1%; promotion of apoptosis of HEL^RE cells (in words) [5]: could promote apoptosis of the HEL^RE cells, and this effect increased with increase in the drug concentration; also recorded: can promote the apoptosis of the HEL^RE cells"
"NC(=O)NO [Hydroxyurea, hydroxyurea]",may increase the risks of myelodysplastic syndrome and acute myelogenous leukemia,,,,,,,,,,,,,,,,,,,,"effect on symptoms, clonal hematopoiesis, mutant gene load [1]: can only relieve symptoms but cannot inhibit clonal hematopoiesis"
N#CC[C@H](C1CCCC1)n1cc(-c2ncnc3[nH]ccc23)cn1 [Ruxolitinib],more severe anemia; also recorded: bone marrow suppression as a common side effect,80.9 ± 1.35%,54.9 ± 4.35%,42.7 ± 4.05%,34.7 ± 1.14%,29.4 ± 0.49%,7.40±0.059% and 7.40%,7.46±0.679% and 7.46%,8.61±0.403% and 8.61%,7.19±0.209% and 7.19%,6.36±0.036% and 6.36%,105 ± 2.08%,105 ± 3.59%,104 ± 9.46%,109 ± 4.39%,96 ± 3.69%,12.4±0.540% and 12.4%,13.0±1.03% and 13.0%,10.8±1.02% and 10.8%,10.2±0.880% and 10.2%,"IC50 ([2]; Homo sapiens, 48 h, mean (95% confidence interval)): 2.31 µM; drug resistance index (ratio of IC50s of resistant and naive cells) ([4]; HEL^RE vs HEL cells, 2880 min): 19.0; IC50 ([4]; Homo sapiens, HEL^RE cells, 48 h, mean (95% confidence interval)): 44.7 µM; average apoptosis rate of HEL-RE cells ([5]; 10 μM): 10.6±1.33% and 10.6%; patients developing drug resistance ([1]; MF patients treated for 1 year, type I JAK inhibitors such as RUX): more than 40%; effect on symptoms, clonal hematopoiesis, mutant gene load [1]: cannot reduce the load of mutant genes; spleen volume and symptoms ([1]; intermediate- and high-risk MF and PV, Phase II and III trials, vs optimal therapy): can reduce the spleen volume and alleviate symptoms"
Cc1ccc2c(Nc3cccc(Cl)c3F)nccc2c1NC(=O)c1csc2c(N)ncnc12 [Belvarafenib],,98.9 ± 6.41%,89.2 ± 4.68%,98.2 ± 3.19%,90.1 ± 4.72%,87.3 ± 2.39%,6.58±0.760% and 6.58%,7.42±0.950% and 7.42%,7.80±0.700% and 7.80%,7.17±1.31% and 7.17%,7.55±0.160% and 7.55%,104 ± 6.13%,92.4 ± 2.45%,70.4%,45.4 ± 2.33%,31.1 ± 3.6%,5.55±0.440% and 5.55%,5.40±0.570% and 5.40%,5.71±0.260% and 5.71%,6.05±0.430% and 6.05%,"inhibition of proliferation of HEL cells (in words) ([2]; 0.1-10 μM): could not inhibit the proliferation of the HEL cells; promotion of apoptosis of HEL cells (in words) ([3]; 0.1-10 μM): could not promote apoptosis of the HEL cells; inhibition of proliferation of HEL^RE cells (in words) ([4]; HEL^RE cells): could inhibit the proliferation of the HEL^RE cells, and this effect increased with increase in the drug concentration; average apoptosis rate of HEL-RE cells ([5]; 10 μM): 7.13±0.450% and 7.13%; promotion of apoptosis of HEL^RE cells (in words) [5]: could not promote apoptosis of the HEL^RE cells"
